In US12122778B2, “Activating pyruvate kinase R” (Novo Nordisk Health Care AG, priority 2018, dated 2024) one finds activation, AC50 and Emax data, which are given here for 13 compounds.

One test concerns the target PKR(R510Q) (Homo sapiens, UniProt P30613, R510Q). Briefly: Luminescence Biochemical Assay (Kinase Glo Plus), PKR R510Q mutant. Particulars: without FBP; for activation at 1.54 µM: 1.54 μM compound, read-out: AC50 LUM KGP woFBP % Fold@1.54 μM mean; for AC50: read-out: AC50 LUM KGP woFBP AC50 μM gmean; for Emax: read-out: AC50 LUM KGP woFBP MAX % FOLD mean. The method, then:
(§1) In some embodiments, a PKR Activating Compound can have: (1) an AC50 value of less than 0.1 μM (e.g., compounds with AC50 values of “+++” in Table 13), 0.1-1.0 μM (e.g., compounds with AC50 values of “++” in Table 13), or 1.01-40 μM (e.g., compounds with AC50 values of “+” in Table 13); (2) a MAX % Fold of 75%-250%, 250-500%, or 75%-500%; and/or (3) a % Fold@1.54 μM of 75%-250%, 250-500%, or 75%-500%. In some embodiments, a PKR Activating Compound has (1) an AC50 value of less than 1.0 μM; (2) a MAX % Fold of 75%-500%; and/or (3) a % Fold@1.54 μM of 75%-500%.
(§2) The phosphorylation of Adenosine-5′-diphosphate (ADP) by various mutants of PKR was determined by the Kinase Glo Plus Assay (Promega) in the presence or absence of FBP [D-Fructose-1,6-diphosphate; BOC Sciences, CAS: 81028-91-3] as follows. Unless otherwise indicated, all reagents were purchased from Sigma-Aldrich. All reagents were prepared in buffer containing 50 mM Tris-HCl, 100 mM KCl, 5 mM MgCl2, and 0.01% Triton X100, 0.03% BSA, and 1 mM DTT. Enzyme and PEP [Phospho(enol) pyruvic acid] were added at 2× to all wells of an assay-ready plate containing serial dilutions of test compounds or DMSO vehicle. Final enzyme concentrations for PKR(wt), PKR(R510Q), and PKR(G332S) were 0.8 nM, 0.8 nM, and 10 nM respectively. Final PEP concentration was 100 μM. The Enzyme/PEP mixture was incubated with compounds for 30 minutes at RT before the assay was initiated with the addition of 2×ADP [Adenosine-5′-diphosphate] and KinaseGloPlus. Final concentration of ADP was 100 μM. […] For assays containing FBP, that reagent is added at 30 μM upon reaction initiation. Reactions were allowed to progress for 45 minutes at RT until luminescence was recorded by the BMG PHERAstar FS Multilabel Reader. All compounds were tested in triplicate at concentrations ranging from 42.5 μM to 2.2 nM in 0.83% DMSO.
(§3) Luminescence values were converted to % Fold increase by normalizing to the average of the DMSO control and multiplying by 100. Max, min, slope and AC50 were determined by the standard four parameter fit algorithm of ActivityBase XE Runner. Compounds were evaluated with three parameters—AC50, MAX % Fold, and % Fold@1.54 μM (FIG. 1). The AC50 value for a compound is the concentration (μM) corresponding to the midway between the maximum and minimum values of the four parameter logistic curve fit (i.e., at which the % fold increase along the four parameter logistic curve fit is halfway between MAX % Fold and MIN % Fold (% Fold Midpoint)), MAX % Fold is the highest fold increase observed at any concentration of compound, and % Fold@1.54 μM is the fold increase at a compound concentration of 1.54 μM. The parameter % Fold@1.54 μM was selected to capture elements of both the AC50 and MAX % Fold and to provide a ranking based on both potency and effect. The compound concentration of 1.54 μM was chosen as one that can optimally differentiate the set of compounds based on the range of activities observed.
(§4) As set forth in Table 13 below, AC50 values (columns A, D, G) are defined as follows: ≤0.1 μM (+++); >0.1 μM and ≤1.0 μM (++); >1.0 μM and ≤40 μM (+); >40 μM (0). Max % FOLD values (columns B, E, H) are defined as follows: ≤75% (+); >75% and ≤250% (++); >250% and ≤500% (+++). % Fold@1.54 μM values (columns C, F, J) are defined as follows: ≤75% (+); >75% and ≤250% (++); >250% and ≤50000 (+++).
(Kinase-Glo measures the ATP left after a reaction by luminescence.)

The target in the next test is PKR(G332S) (Homo sapiens, UniProt P30613, G332S). As to the kind of experiment: Luminescence Biochemical Assay (Kinase Glo Plus), PKR G332S mutant. Particulars: with FBP; for activation at 1.54 µM: 1.54 μM compound, read-out: AC50 LUM KGP FBP % Fold@1.54 μM mean; for AC50: read-out: AC50 LUM KGP FBP AC50 μM gmean (column A); for Emax: read-out: AC50 LUM KGP FBP MAX % FOLD mean. As for the experimental part:
as §1, §2, §3, §4

Another test concerns the target PKR(wt) (Homo sapiens, UniProt P30613). As to the kind of experiment: Luminescence Biochemical Assay (Kinase Glo Plus), wild type PKR. Conditions: without FBP.

SMILES strings stand for the structures.

PKR(R510Q), sequence (P30613 whole entry R510Q): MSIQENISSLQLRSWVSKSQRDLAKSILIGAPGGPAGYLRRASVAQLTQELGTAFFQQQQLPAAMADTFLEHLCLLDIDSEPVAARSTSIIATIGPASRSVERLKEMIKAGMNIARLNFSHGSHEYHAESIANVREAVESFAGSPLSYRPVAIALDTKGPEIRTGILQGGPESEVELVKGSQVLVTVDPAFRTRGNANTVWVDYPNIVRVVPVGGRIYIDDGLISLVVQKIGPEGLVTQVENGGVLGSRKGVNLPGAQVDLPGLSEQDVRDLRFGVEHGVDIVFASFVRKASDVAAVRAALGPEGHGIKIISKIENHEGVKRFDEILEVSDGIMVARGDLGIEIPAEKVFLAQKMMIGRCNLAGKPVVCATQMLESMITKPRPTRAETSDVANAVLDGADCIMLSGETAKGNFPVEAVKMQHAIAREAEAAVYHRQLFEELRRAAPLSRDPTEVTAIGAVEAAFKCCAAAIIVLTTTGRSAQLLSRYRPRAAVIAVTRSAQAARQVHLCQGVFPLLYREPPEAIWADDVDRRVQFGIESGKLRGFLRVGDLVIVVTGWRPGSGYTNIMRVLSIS
PKR(wt), sequence (P30613 whole entry): as the sequence (P30613 whole entry R510Q) above, with Q510R counted along it
PKR(G332S), sequence (P30613 whole entry G332S): as the sequence (P30613 whole entry R510Q) above, with G332S, Q510R counted along it

Regarding `O=C(NCc1ccc(F)cc1)N1CC2=C(C1)CN(S(=O)(=O)c1ccc3nsnc3c1)C2` [Example 20-28, 5-(2,1,3-Benzothiadiazole-5-sulfonyl)-N-[(4-fluorophenyl)methyl]-1H,2H,3H,4H,5H,6H-pyrrolo[3,4-c]pyrrole-2-carboxamide], on PKR(R510Q), the activation at 1.54 µM lay in the range of 75 to 250%, the AC50 is 1 to 40 µM and the Emax was in the range of 75 to 250%. On PKR(G332S), the activation at 1.54 µM lay in the range of 75 to 250%, the half-maximal activity concentration (AC50) is 1 to 40 µM and the Emax fell in the range of 75 to 250%.

In the case of `COc1ccc(CNC(=O)N2CC3=C(C2)CN(S(=O)(=O)c2ccc(F)cc2)C3)cc1` [Example 20-3], on PKR(R510Q), the activation at 1.54 µM lay in the range of 250 to 50000%, the AC50 fell in the range of 0.1 to 1 µM and the Emax was 250 to 500%. On PKR(G332S), the activation at 1.54 µM was 75 to 250%, the AC50 was no more than 0.1 µM and the Emax is 75 to 250%.

`COc1ccccc1CNC(=O)N1CC2=C(C1)CN(S(=O)(=O)c1ccc(F)cc1)C2` [Example 20-6, 5-(4-Fluorobenzenesulfonyl)-N-[(2-methoxyphenyl)methyl]-1H,2H,3H,4H,5H,6H-pyrrolo[3,4-c]pyrrole-2-carboxamide]: at PKR(R510Q), the activation at 1.54 µM was 75 to 250%, the AC50 lay in the range of 0.1 to 1 µM and the Emax lay within 250 to 500%. For the same compound, on PKR(G332S), the activation at 1.54 µM was 75 to 250%, the AC50 is no more than 0.1 µM and the Emax fell in the range of 75 to 250%.

Consider `Cc1noc(C)c1S(=O)(=O)N1CC2=C(CN(C(=O)[C@H](O)c3ccccc3)C2)C1` [Example 18-44, (2R)-1-{5-[(dimethyl-1,2-oxazol-4-yl)sulfonyl]-1H,2H,3H,4H,5H,6H-pyrrolo[3,4-c]pyrrol-2-yl}-2-hydroxy-2-phenylethan-1-one], for which, on PKR(R510Q), the activation at 1.54 µM lay in the range of 75 to 250%, the AC50 was in the range of 1 to 40 µM and the Emax was in the range of 75 to 250%. Moreover, on PKR(G332S), the activation at 1.54 µM was 75 to 250%, the AC50 was 1 to 40 µM and the Emax fell in the range of 75 to 250%.

Take `CN1CCOc2ccc(S(=O)(=O)N3CC4=C(CN(C(=O)NCc5ccc(F)cc5)C4)C3)cc21` [Example 21-26, N-[(4-fluorophenyl)methyl]-5-[(4-methyl-3,4-dihydro-2H-1,4-benzoxazin-6-yl)sulfonyl]-1H,2H,3H,4H,5H,6H-pyrrolo[3,4-c]pyrrole-2-carboxamide]: at PKR(R510Q), the activation at 1.54 µM was in the range of 75 to 250%, the AC50 lay within 0.1 to 1 µM and the Emax was in the range of 75 to 250%. Moreover, at PKR(G332S), the activation at 1.54 µM lay in the range of 75 to 250%, the AC50 lay within 1 to 40 µM and the Emax was in the range of 75 to 250%.

As for `O=C(NCc1ccc(F)cc1)N1CC2=C(C1)CN(S(=O)(=O)c1ccc(F)cc1)C2` [Example 20-20, 5-(4-Fluorobenzenesulfonyl)-N-[(4-fluorophenyl)methyl]-1H,2H,3H,4H,5H,6H-pyrrolo[3,4-c]pyrrole-2-carboxamide], at PKR(R510Q), the activation at 1.54 µM fell in the range of 75 to 250%, the AC50 lay in the range of 0.1 to 1 µM and the Emax lay in the range of 250 to 500%. For the same compound, on PKR(G332S), the activation at 1.54 µM lay in the range of 75 to 250%, the AC50 is no more than 0.1 µM and the Emax lay in the range of 75 to 250%.

Regarding `COCCNC(=O)N1CC2=C(C1)CN(S(=O)(=O)c1ccc3c(c1)N(C)CCO3)C2` [Example 21-24], at PKR(R510Q), the activation at 1.54 µM lay in the range of 75 to 250%, the AC50 lay in the range of 0.1 to 1 µM and the Emax was 250 to 500%. In addition, at PKR(G332S), the activation at 1.54 µM lay within 75 to 250%, the AC50 was 0.1 to 1 µM and the Emax was 75 to 250%.

Take `Cc1nc(S(=O)(=O)N2CC3=C(CN(C(=O)[C@H](C)c4ccccc4)C3)C2)cn1C` [Example 19-3, (2R)-1-{5-[(1,2-dimethyl-1H-imidazol-4-yl)sulfonyl]-1H,2H,3H,4H,5H,6H-pyrrolo[3,4-c]pyrrol-2-yl}-2-phenylpropan-1-one]: on PKR(R510Q), the activation at 1.54 µM fell in the range of 75 to 250%, the AC50 lay within 1 to 40 µM and the Emax lay within 75 to 250%. For the same compound, at PKR(G332S), the activation at 1.54 µM was 75 to 250%, the concentration at half-maximal activity (AC50) lay within 0.1 to 1 µM and the Emax lay within 75 to 250%.

For `Cc1cc(CNC(=O)N2CC3=C(C2)CN(S(=O)(=O)c2cccnc2)C3)no1` [Example 21-38, N-[(5-methyl-1,2-oxazol-3-yl)methyl]-5-(pyridine-3-sulfonyl)-1H,2H,3H,4H,5H,6H-pyrrolo[3,4-c]pyrrole-2-carboxamide], on PKR(R510Q), the activation at 1.54 µM was in the range of 75 to 250%, the AC50 lay in the range of 1 to 40 µM and the Emax fell in the range of 250 to 500%. For the same compound, at PKR(G332S), the activation at 1.54 µM was 75 to 250%, the AC50 lay within 1 to 40 µM and the Emax lay in the range of 75 to 250%.

With `COc1ccccc1CNC(=O)N1CC2=C(C1)CN(S(=O)(=O)c1ccc3nsnc3c1)C2` [Example 20-27, 5-(2,1,3-Benzothiadiazole-5-sulfonyl)-N-[(2-methoxyphenyl)methyl]-1H,2H,3H,4H,5H,6H-pyrrolo[3,4-c]pyrrole-2-carboxamide], at PKR(R510Q), the activation at 1.54 µM is 75 to 250%, the AC50 lay in the range of 1 to 40 µM and the Emax lay in the range of 250 to 500%. Moreover, at PKR(G332S), the activation at 1.54 µM lay in the range of 75 to 250%, the AC50 is 1 to 40 µM and the Emax was 75 to 250%.

In the case of `Cc1nc(S(=O)(=O)N2CC3=C(CN(C(=O)C(C)n4cnc5ccccc54)C3)C2)cn1C` (stereo not drawn) [Example 19-9, 2-(1H-Benzo[d]imidazol-1-yl)-1-(5-((1,2-dimethyl-1H-imidazol-4-yl)sulfonyl)-3,4,5,6-tetrahydropyrrolo[3,4-c]pyrrol-2(1H)-yl)propan-1-one], at PKR(R510Q), the activation at 1.54 µM lay within 75 to 250%, the AC50 is 1 to 40 µM and the Emax fell in the range of 75 to 250%. Moreover, on PKR(G332S), the activation at 1.54 µM is 75 to 250%, the AC50 fell in the range of 0.1 to 1 µM and the Emax was 75 to 250%.

As for `COc1ccccc1CNC(=O)N1CC2=C(C1)CN(S(=O)(=O)c1cccc3nonc13)C2` [Example 20-19, 5-(2,1,3-Benzoxadiazole-4-sulfonyl)-N-[(2-methoxyphenyl)methyl]-1H,2H,3H,4H,5H,6H-pyrrolo[3,4-c]pyrrole-2-carboxamide], on PKR(R510Q), the activation at 1.54 µM was 75 to 250%, the half-maximal activity concentration (AC50) was in the range of 0.1 to 1 µM and the Emax fell in the range of 250 to 500%. In addition, on PKR(G332S), the activation at 1.54 µM is 75 to 250%, the AC50 lay within 1 to 40 µM and the Emax was in the range of 75 to 250%.

Take `O=C([C@H](O)c1ccccc1)N1CC2=C(C1)CN(S(=O)(=O)c1ccc(F)cc1F)C2` [Example 18-18, (2R)-1-[5-(2,4-difluorobenzenesulfonyl)-1H,2H,3H,4H,5H,6H-pyrrolo[3,4-c]pyrrol-2-yl]-2-hydroxy-2-phenylethan-1-one]: the activation at 1.54 µM fell in the range of 250 to 50000% on PKR(R510Q) and 75 to 250% at PKR(wt) (1.54 μM compound, read-out: AC50 LUM KGP woFBP % Fold@1.54 μM mean). Moreover, the AC50 was 0.1 to 1 µM at PKR(R510Q) and no more than 0.1 µM at PKR(wt) (read-out: AC50 LUM KGP woFBP AC50 μM gmean). Also, the Emax on PKR(R510Q) was in the range of 250 to 500%; on PKR(wt) (read-out: AC50 LUM KGP woFBP MAX % FOLD mean) it was 75 to 250%.

By AC50 is commonly meant the concentration giving half of the maximal activity seen.
